Results from article PMC8006935, “Study of Combinatorial Drug Synergy of Novel Acridone Derivatives With Temozolomide Using in-silico and in-vitro Methods in the Treatment of Drug-Resistant Glioma” (Frontiers in Oncology, 2021).
Like-named read-outs stand apart in the source and are kept apart here.

Assays:
[1] = earlier studies, no reference given; cited from earlier work
[2] = parameters: method as in PMID 21565270; conditions: cited from earlier work
[3] = tested on: T-98 (Temozolomide resistant) Glioma cell lines; assay: Sulforhodamine B assay, T-98 TMZ resistant Glioma cells; format: cell-based; conditions: for IC50: Glioma cell; for T-98/TMZRES SI: SI = CC50 of Vero cell line /IC50 of Cancer cell line after 72 h
Protocol: In order to test the growth inhibition potential of the TMZ and Acridone derivatives on Glioma, the U-87 (Uppsala 87) Glioma cell lines and T-98 (Temozolomide resistant) Glioma cell lines were treated with Temozolomide (TMZ) and Acridone derivatives AC2, AC7, and AC26. The African Green Monkey Kidney Vero cell lines were used as control for the study. The Vero cell lines were obtained from the National Center for Cell Sciences (NCCS), Pune, while the U-87 and T-98 cell lines were carried in the lab of Dr. GJ Peters, Cancer Center Amsterdam (CCA), VU University Medical Center, Amsterdam, Netherlands. The Mycoplasma testing was done by using the Universal Mycoplasma Detection Kit (ATCC® 30-1012K™) every 6 months. The Vero cell lines have been used as control as they are normal kidney epithelial cells and are non-cancerous in nature. The Vero cell lines have been routinely used for testing cytotoxicity of small molecules by various researchers ([22], [23]). Also, in our previous study, Vero cell lines have been used for testing safety and efficacy of Acridone derivatives for Lung, Cervical, and Breast Cancer studies ([13]).
Cell viability was found using the Sulforhodamine B (SRB) assay to measure the cellular protein content which provides better sensitivity in comparison to MTT assay ([24]). Moreover, as this method is dependent on the property of the SRB dye, it acts by binding to proteins under slightly acidic conditions and can be exposed to basic conditions for its extraction. The resulting amount of bound dye is then utilized as a proxy for cell mass ([25]). This cell mass can then be extrapolated to measure cell growth.
Glioma cells were cultured in Gibco (RPMI 1640) complemented with 10% fetal calf serum (Gibco). The cultures were then treated with trypsin-EDTA in order to detach/separate the cells from their culture flasks. The quickly proliferating cells were harvested, counted and plated at suitable concentrations in 96-well microplates. These microplates were subsequently incubated for 24 h. After incubation, drug compounds were dissolved in the culture media and placed in 96 well plates in triplicates, which were again incubated at 37°C under 5% CO2 for 72 h. 72 h later, the plates were removed and the cells were treated with cold Trichloroacetic acid (TCA) to fix the cultures and. 0.4% of SRB dissolved in 1% acetic acid was then added to the culture in order to stain the cells. Next, the bound stain was dissolved in 150 μl of 10 mM unbuffered Tris base left on a gyrator shaker. Thereafter, absorbance of the solution was measured at 540 nm utilizing a microplate reader. Absorbance readings (triplicate values) recorded were used to calculate percentage growth inhibition due to the effect of drugs using the following equations.
% Cell growth = Absorbance sample/Absorbance of control or untreated × 100
% Growth inhibition = 100 - % cell growth
The IC50 was calculated based on the log graph sheet which was developed in-house at the CCA, VU University Medical Center.
Selectivity Index (SI) is a ratio that measures the window between cytotoxicity and anticancer activity of the drugs ([26]). […] Here, IC50 is the inhibition concentration for inhibiting 50% of cancer cells and CC50 is cytotoxic concentration causing death of 50% viable cells in the host.

[4] = 72 h, SRB, Mean ± Standard Deviations in Table 4, read-out: T-98/TMZRES IC50
[5] = drug administered individually, drug resistant cells, read-out: Initial IC50

Structure (SMILES) | cardiotoxicity, nephrotoxicity and necrosis [1] | liver histopathology [1] | cytotoxicity in comparison to the other acridone derivatives [2] [times] | IC50 [3, 4] [µM] | IC50 [3, 5] [µM] | T-98/TMZRES SI [3]
O=C(NN=CC=Cc1ccccc1)c1cccc2c(=O)c3ccccc3[nH]c12 [AC2, 9-oxo-N'-(3-phenylallylidene)-9,10-dihydroacridine-4-carbohydrazide] | no cardiotoxicity, nephrotoxicity and necrosis | minimal hyperchromatic, anaplasia, and cellular infiltration | 100 | 1.53 ± 0.25 | 1.53 | 36.73
O=C(NN=Cc1ccccc1Cl)c1cccc2c(=O)c3ccccc3[nH]c12 [AC7, N'-(2-chlorobenzylidene)-9-oxo-9,10-dihydroacridine-4-carbohydrazide] | no cardiotoxicity, nephrotoxicity and necrosis | minimal hyperchromatic, anaplasia, and cellular infiltration | 100 | 1.05 ± 0.18 | 1.05 | 45.87
CC(=NNC(=O)c1cccc2c(=O)c3ccccc3[nH]c12)c1ccccc1O [AC26, N'(1-(2-hydroxyphenyl)ethylidene)-9-oxo-9,10-dihydroacridine-4-carbohydrazide] | no cardiotoxicity, nephrotoxicity and necrosis | minimal hyperchromatic, anaplasia, and cellular infiltration | 100 | 0.76 ± 0.053 | 0.76 | 86.94
